Several values for one entry are separate records, joined by “and”; a condition that tells them apart may be missing. Equal values may be shown once. Read-outs that look alike come from different tables or passages of the source.
Experiments:
Factor VII (FVII) [1] = test: In vivo FVII activity of nucleic acid-lipid formulations in rats; design: species or system SD rats; conditions: PEG-C-DOMG as PEG-lipid
Experimental: The ability of various nucleic acid-lipid formulations comprising different cationic lipids was further explored in mice and rats. Each of the tested nucleic acid-lipid formulations was prepared as described above using PEG-C-DOMG as the PEG-lipid. The formulations initially tested (which included either DLin-K-DMA, DLin-K-MPZ, DLin-K-C2-DMA, or DLin-K-C4-DMA) reduced residual FVII levels in both mice (FIG. 3) and rats (FIG. 4). […] The activity of the DLin-K-C2-DMA formulation was approximately 2-3-fold greater than the DLin-K-DMA formulation in mice, and approximately 10-20-fold greater than the DLin-K-DMA formulation in rats. A comparison of FVII reduction in mice and rats using the DLin-K-DMA formulation or the DLin-K-C2-DMA formulation is shown in FIG. 5.

[2] = Bilayer-to-hexagonal HII transition temperature (TBH) in equimolar mixtures with DSPS; format: physicochemical
Text: Both techniques gave similar results.

Factor VII (FVII) [3] = conditions: for ED50: siRNA dose reducing serum FVII protein by 50% at 24 h, PFV LN-siRNA 40/10/40/10
Text: It is well established that in vivo RNAi silencing of specific hepatocyte proteins can be achieved following intravenous (i.v.) administration of siRNA's encapsulated in, or associated with, select nanoparticles designed for intracellular delivery. […] In this Example, rational design in combination with in vivo screening were applied to systematically modify the structure of DLinDMA and identify molecular features that enhance or reduce cationic lipid potency. More than 30 lipids were synthesized and incorporated into nucleic acid-lipid particles, i.e., lipid nanoparticles (LN) encapsulating an siRNA (LN-siRNA) targeting Factor VII (FVII), a blood clotting component synthesized and secreted by hepatocytes that is readily measured in serum. LN-siRNA systems were prepared using the same process, lipid molar ratios and particle size to minimize effects on activity resulting from formulation characteristics other than the cationic lipid. Each formulation was administered as a single bolus injection over a range of doses enabling an estimate of the siRNA dose required to reduce FVII serum protein concentrations by 50% after 24 h (ED50).
FVII activity was evaluated in FVII siRNA-treated animals at 24 hours after intravenous (bolus) injection in C57BL/6 mice or 48 hours after intravenous (bolus) injection in SD rats. Six to 8 week old, female C57Bl/6 mice were obtained from Charles River Laboratories and acclimated for one week prior to use in studies. Animals were held in a pathogen-free environment and all procedures involving animals were performed in accordance with the guidelines established by the Canadian Council on Animal Care.
LN-siRNA systems containing Factor VII siRNA were diluted to the appropriate concentrations in sterile phosphate buffered saline immediately prior to use, and the formulations were administered intravenously via the lateral tail vein in a total volume of 10 ml/kg. After 24 h, animals were anaesthetised with Ketamine/Xylazine and blood was collected by cardiac puncture and processed to serum (Microtainer Serum Separator Tubes; Becton Dickinson, Franklin Lakes, N.J., USA). Serum was tested immediately or stored at −70° C. for later analysis for serum Factor VII levels.
FVII was measured using a commercially available kit (Biophen FVII Kit™; Aniara Corp., Mason, Ohio), following the manufacturer's instructions at a microplate scale. FVII reduction was determined against untreated control animals, and the results were expressed as % Residual FVII. Five dose levels (0.1, 0.3, 0.5, 1.0, and 3.0 mg/kg) were typically used.
Serum Factor VII levels were determined using the colorimetric Biophen VII assay kit (Anaira, USA). Briefly, serially diluted pooled control serum (200%-3.125%) and appropriately diluted plasma samples from treated animals were analyzed using the Biophen VII kit according to manufacturer's instructions in 96-well, flat bottom, non-binding polystyrene assay plates (Corning, Corning, N.Y.) and absorbance at 405 nm was measured. A calibration curve was generated using the serial diluted control serum and used to determine levels of Factor VII in serum from treated animals.
Initial studies were performed in eight to 10 week old, female C57BL/6 mice in two stages. In the first stage, the activity associated with the benchmark lipid DLinDMA was compared to the activity associated with modified forms of DLinDMA.

transthyretin (TTR) = test: TTR silencing by KC2-SNALP-formulated siTTR in non-human primates (liver TTR mRNA); format: in vivo, Cynomolgus monkeys; conditions: Macaca fascicularis, iv, single 15 minute i.v. infusion; 48 hours post-administration
Text: FIGS. 9A-B illustrate the efficacy of KC2-SNALP formulations. FIG. 9A is a graph showing the improved efficacy of KC2-SNALP versus a DLin-K-C2-DMA PFV formulation in mice. The in vivo efficacy of KC2-SNALP (◯) was compared to that of the un-optimized DLin-KC2-DMA PFV formulation (●) in the mouse FVII model. Data points are expressed as a percentage of PBS control animals and represent group mean (n=5)±s.d. FIG. 9B depicts the efficacy of KC2-SNALP in non-human primates. Cynomolgus monkeys (n=3 per group) received either 0.03, 0.1, 0.3 or 1 mg/kg siTTR, or 1 mg/kg siApoB formulated in KC2-SNALP or PBS as 15 minute intravenous infusions (5 mL/kg) via the cephalic vein. Animals were sacrificed at 48 hours post-administration. TTR mRNA levels relative to GAPDH mRNA levels were determined in liver samples. Data points represent group mean±s.d. *=P<0.05; **=P<0.005.
Given the promising activity and safety profile observed in rodents in the studies described in Example 17, studies were performed in non-human primates to investigate the translation of DLin-KC2-DMA activity in higher species. For these studies, transthyretin (TTR), a hepatic gene of high therapeutic interest, was targeted. […]
Tissues were harvested at 48 hours post-administration, and liver mRNA levels of TTR were determined. […]

[4] = In situ determination of apparent pKa using TNS fluorescence titration
Text: In situ pKa measurements were made using the pH sensitive fluorescent probe TNS, using a modification of the approach previously published in Bailey, A. L. and Cullis, P. R., Biochemistry 33:12573-12580 (1994).
Titrations of surface charge as a function of pH can then be used to determine the apparent pKa (hereafter referred to as pKa) of constituent lipids (Cullis, P. R., et al., Chem Phys Lipids 40:127-144 (1986)).

[5] = Tolerability of DLin-K-C2-DMA lipid particles in mice; format: in vivo
Experimental: (§1) Data was recorded as % Change in Body Weight.

[6] = format: in vivo; conditions: rats
Experimental: as §1
Histopathology results for livers obtained from rats treated with 91 mg/kg (“5” mg/kg) were normal.

Question: For CCCCC/C=C\C/C=C\CCCCCCCCC1(CCCCCCCC/C=C\C/C=C\CCCCC)OCC(CCN(C)C)O1 (centres unmarked) [DLin-K-C2-DMA, 2,2-Dilinoleyl-4-(2-dimethylaminoethyl)-[1,3]-dioxolane], which “fold greater activity than the DLin-K-DMA formulation” value (Factor VII (FVII) [1]) is on record?
Answer: 10-20 fold

Question: And the “TBH lower than that for DLinDMA” value [2]?
Answer: 7 °C

Question: And the HII transition temperature ([2]; equimolar with DSPS, pH 4.8, 31P NMR and DSC)?
Answer: 20 °C

Question: And the ED50 (Factor VII (FVII) [3]; Table 6)?
Answer: ~0.1 mg/kg

Question: What about the “FVII ED50” value (Factor VII (FVII) [3]; Table 11) of the same compound?
Answer: ~0.1 mg/kg

Question: And the “fold more potent / greater activity than DLin-K-DMA” value (Factor VII (FVII) [3]; mice)?
Answer: 4 fold and 2-3 fold

Question: What about the “fold difference in in vivo activity between DLin-K-C2-DMA and DLin-K-C4-DMA” value (Factor VII (FVII) [3]; mouse, in vivo) of the same compound?
Answer: > 30 fold

Question: What about the “fold more potent than the DLinDMA benchmark” value (Factor VII (FVII) [3]; reducing serum FVII protein, mouse, head-to-head) of the same compound?
Answer: 10 fold

Question: And the “siRNA dose as low as which in vivo activity was exhibited” value (Factor VII (FVII) [3]; rodents)?
Answer: 0.01 mg/kg

Question: And the ED50 (Factor VII (FVII) [3])?
Answer: ~0.1 mg/kg

Question: And the “encapsulated siRNA sufficient to knockdown serum FVII protein by 50%” value (Factor VII (FVII) [3]; single i.v. bolus to a mouse, within 24 h, 40 mole % cationic lipid)?
Answer: ~100 picomoles

Question: And the ED50 (transthyretin (TTR))?
Answer: 0.3 mg/kg

Question: What about the pKa [4] of the same compound?
Answer: 6.4

Question: And the pKa ([4]; nucleic acid-lipid particles containing the cationic lipid)?
Answer: 6.4

Question: What about the body weight ([5]; mice) of the same compound?
Answer: dose-dependent loss of weight

Question: And the “increase in ALT-AST” value ([5]; mice, approximately 1100 mg/kg lipid)?
Answer: greater than 10 fold

Question: And the clinical signs ([5]; mice, except at greater than 1300 mg/kg (hunched, slower movement, scruffy coat))?
Answer: no obvious clinical signs

Question: And the mortality ([5]; mouse, in vivo)?
Answer: no mice died

Question: What about the “lipid dose as low as which significant increases in ALT/AST were seen” value [6] of the same compound?
Answer: 182 mg/kg lipid

Question: What about the liver histopathology ([6]; 91 mg/kg) of the same compound?
Answer: normal

Question: What about the “clinical observations and liver appearance” value ([6]; 91 mg/kg lipid) of the same compound?
Answer: appeared normal and had normal livers

Question: And the liver histopathology ([6]; 182 mg/kg)?
Answer: mild to moderate hepatocellular necrosis, centrilobular, and hepatocellular vacuolization

Question: And the clinical observations ([6]; 182 mg/kg lipid)?
Answer: slower movement and a scruffy coat

Question: And the “clinical observations and liver appearance” value ([6]; 364 mg/kg lipid)?
Answer: hunched, slower movement, quinting eyes, scruffy coats, piloerection, red/orange uring, with pale and some mottling livers

Question: And the mortality ([6]; 364 mg/kg lipid)?
Answer: one died

Question: And the body weight ([6]; 24 hours after i.v. treatment)?
Answer: dose-dependent loss of weight
